This note sets out measurements from BindingDB's records for doi:10.1021/jm00139a009 (1981).

This experiment concerns the target T1, Dihydrofolate reductase (Rattus norvegicus, UniProt Q920D2).
T1 sequence (Q920D2 whole entry): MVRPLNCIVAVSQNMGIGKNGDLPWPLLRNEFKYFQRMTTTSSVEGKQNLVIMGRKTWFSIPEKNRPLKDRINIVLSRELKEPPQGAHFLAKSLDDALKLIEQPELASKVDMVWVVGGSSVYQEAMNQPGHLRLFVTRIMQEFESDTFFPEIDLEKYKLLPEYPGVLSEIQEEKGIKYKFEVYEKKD
As to the kind of experiment: Inhibitory activity against dihydrofolate reductase of rat liver.
Usually IC50 stands for the concentration at which inhibition is half-maximal. As to `Nc1nc(N)c2c(Cl)c(N)ccc2n1`, the IC50 came to 661 nM. The figure for `Nc1nc(N)c2cc(Sc3ccc(Cl)c(Cl)c3)ccc2n1` is 11 nM; for `Nc1nc(N)c2c(Sc3ccc4ccccc4c3)cccc2n1` it is 7.08 nM; for `Nc1nc(N)c2cc(Sc3cccc(C(F)(F)F)c3)ccc2n1` [WR-159412] it is 36.3 nM.

The molecule `Nc1nc(N)c2cc(C=O)ccc2n1` showed a half-inhibitory concentration (IC50) of 10000 nM. `Nc1nc(N)c2cc(NC(=O)Cc3ccc(Cl)cc3)ccc2n1` had a 50% inhibitory concentration (IC50) of 22.9 nM. The figure for `Nc1nc(N)c2c(Cl)c(NC(=O)Cc3ccc(Cl)c(Cl)c3)ccc2n1` is 24 nM. `Nc1nc(N)c2c(CCc3ccc4ccccc4c3)cccc2n1` [TCMDC-141975]: the IC50 was found to be 19.9 nM. Under `Cc1cccc2nc(N)nc(N)c12` [GNF-Pf-690] stands 813 nM; under `Nc1nc(N)c2c(S(=O)(=O)c3ccc(Cl)c(Cl)c3)cccc2n1`, 57500 nM; under `NCc1ccc2nc(N)nc(N)c2c1`, 9330 nM.

As for `Nc1nc(N)c2c(/C=C\c3ccc4ccccc4c3)cccc2n1`, half-maximal inhibition (IC50) required 5250 nM. With `Nc1nc(N)c2c(Sc3ccc(Cl)c(Cl)c3)cccc2n1`, inhibition was half-maximal at 200 nM (IC50). On to `Nc1nc(N)c2c(Cl)cccc2n1`, for which half-maximal inhibition (IC50) was put at 562 nM. This IC50 lies about 2.8-fold higher than the previous one. `Nc1nc(N)c2cc([S+]([O-])c3ccc4ccccc4c3)ccc2n1` (stereo not drawn) registered an IC50 of 7.08 nM.

With `O=[N+]([O-])c1ccc(/C=C/C=C/c2ccccc2)cc1`, half-maximal inhibition (IC50) was put at 3.98 nM. Consider `Nc1nc(N)c2c(CSc3ccc(Cl)cc3)cccc2n1`, for which half-maximal inhibition (IC50) was put at 19.9 nM.

With `Cc1c(NC(=O)Cc2ccc(Cl)c(Cl)c2)ccc2nc(N)nc(N)c12`, the IC50 amounted to 17 nM. `Cc1c(NC(=O)Cc2ccc3ccccc3c2)ccc2nc(N)nc(N)c12`: the IC50 came out at 4.17 nM.

`Nc1nc(N)c2c([S+]([O-])c3ccc(Cl)c(Cl)c3)cccc2n1` (stereo not drawn) showed an IC50 of 55000 nM. Compared with the last molecule, the IC50 is about 13000-fold higher. The figure for `Nc1nc(N)c2cc(NCc3ccc(Cl)c(Cl)c3)ccc2n1` is 18.2 nM; for `Nc1nc(N)c2c(Cl)c(NC(=O)Cc3ccc4ccccc4c3)ccc2n1` it is 5.01 nM. Under `Cc1c(NC(=O)Cc2cccc(Br)c2)ccc2nc(N)nc(N)c12` stands 33.9 nM; under `Nc1nc(N)c2c(S(=O)(=O)c3ccc4ccccc4c3)cccc2n1`, 15100 nM. Under `Nc1ccc2nc(N)nc(N)c2c1` [QUINAZOLINE-2,4,6-TRIAMINE] stands 26900 nM; under `Nc1nc(N)c2c(Cl)c(NCc3cccc(Br)c3)ccc2n1`, 7.59 nM; under `Nc1nc(N)c2c(Cl)c(Cl)ccc2n1`, 200 nM. The molecule `Cc1ccc2nc(N)nc(N)c2c1` had an IC50 of 2190 nM. As to `Nc1nc(N)c2c(CSc3ccc4ccccc4c3)cccc2n1`, the IC50 worked out at 10 nM. This IC50 lies about 220-fold lower than the previous one.

Molecule `Nc1nc(N)c2c(Cl)c(Br)ccc2n1` gave a half-inhibitory concentration (IC50) of 100 nM. In the case of `Nc1nc(N)c2cc(NC(=O)Cc3ccc4ccccc4c3)ccc2n1`, the IC50 turned out to be 5.01 nM. Consider `Nc1nc(N)c2cc(Cl)ccc2n1`, for which the concentration for half-maximal inhibition (IC50) is 3980 nM.

Molecule `Nc1nc(N)c2c(/C=C/c3ccc4ccccc4c3)cccc2n1` yielded a 50% inhibitory concentration (IC50) of 3020 nM.
